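In this assay, cells in 96-well plates receive the compound at five concentrations for 48 hours. Endpoints are linearly interpolated between the surrounding concentrations. The concentration for 50% growth inhibition is given as GI50. TGI: concentration producing complete growth inhibition.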
Legend:
Assay in all cases: NCI-60 cell line screen, 48 h
[1] = system: RXF 393 renal
[2] = system: KM12 colon
[3] = system: NCI-H23 lung
[4] = system: OVCAR-8 ovarian
[5] = system: OVCAR-3 ovarian
[6] = system: SK-MEL-2 melanoma
[7] = system: NCI-H460 lung
[8] = system: PC-3 prostate
[9] = system: MCF7 breast
[10] = system: MDA-MB-435

| Compound | TGI [1] [µM] | TGI [2] [µM] | TGI [3] [µM] | TGI [4] [µM] | TGI [5] [µM] | TGI [6] [µM] | TGI [7] [µM] | GI50 [1] [µM] | GI50 [2] [µM] | GI50 [7] [µM] | GI50 [8] [µM] | TGI [8] [µM] | GI50 [9] [µM] | TGI [9] [µM] | GI50 [3] [µM] | GI50 [4] [µM] | GI50 [5] [µM] | GI50 [6] [µM] | TGI [10] [µM] | GI50 [10] [µM] |
| --- | --- | --- | --- | --- | --- | --- | --- | --- | --- | --- | --- | --- | --- | --- | --- | --- | --- | --- | --- | --- |
| CC1=N/C(=C/c2ccc3c(c2)OCO3)C(=O)O1 | > 100 | > 100 | > 100 | > 100 | > 100 | > 100 |  |  |  |  |  |  |  |  |  |  |  |  |  |  |
| NNC(=O)C(=O)N/N=C(\CCCC(=O)Nc1ccc(Cl)cc1)CC(=O)c1ccc(F)cc1 | > 100 | > 100 | > 100 | > 100 | > 100 | > 100 | > 100 |  |  |  |  |  |  |  |  |  |  |  |  |  |
| CC(C)C[C@H](NC(=O)CNC(=O)c1cc(Cl)ccc1Cl)B(O)O | 0.0356 | 0.101 |  | 15.3 | 0.0292 | 0.0364 | 0.919 | < 0.0138 | 0.0295 | 0.0831 | 0.0486 | 0.841 | < 0.0196 | > 52.4 | 0.0282 | 0.0659 | < 0.0141 | < 0.0145 |  |  |
| C=CCC1(CN(C)C)CC/C(=C\c2ccc(OC)cc2)C1=O (centres undefined) | > 100 | > 100 | > 100 | > 100 | > 100 | > 100 | > 100 |  |  |  |  |  |  |  |  |  |  |  |  |  |
| CCOC(OC(C)=O)[C@@H]1C=C[C@H](C)N(c2ccc([N+](=O)[O-])cc2)O1 (some centres undefined) | 22.4 | 7.82 | 16.2 | 4.55 | 15.7 | 13.5 | 34.2 |  |  |  |  |  |  |  |  |  |  |  |  |  |
| O=C(CSc1nc2c(n1Nc1ccccc1)-c1ccccc1SC2)Nc1nc(-c2ccc(Cl)cc2)cs1 | 43.4 | > 100 | 97.1 | > 100 | > 100 | > 100 |  | 15.8 | > 100 |  | > 100 | > 100 | > 100 | > 100 | 6.48 | 6.42 | 7.34 | 37.2 |  |  |
| CCOC(=O)Cc1c(C)c2cc(C(=O)c3ccccc3)c(O)cc2oc1=O | > 100 |  | 46.6 | > 100 | 53.8 | 40.2 | > 100 |  |  |  |  | 81.2 |  | 63.9 |  |  |  |  | > 100 |  |
| O=c1c2ccccc2sc2c(NCCCNCCO)nc3ccccc3c12 | 3.52 | 3.48 | 7.55 | 4.46 | 3.65 | 3.62 | 2.01 | 1.46 | 1.77 | 0.605 | 1.49 | 2.98 |  |  | 2.01 | 1.97 | 1.81 | 1.87 | 3.25 | 1.77 |
| O=C(/C=C\c1ccccc1O)c1ccc(O)cc1O | > 100 | > 100 | > 100 | > 100 | > 100 | > 100 | > 100 |  |  |  |  |  |  |  |  |  |  |  |  |  |
| Cc1ccc(C)c(N2C(=O)C(=O)C(c3nc4ccccc4s3)/C(=N/N)C2=O)c1 (centres undefined) | > 100 | > 100 | > 100 | > 100 | > 100 | > 100 | > 100 |  |  |  |  |  |  |  |  |  |  |  |  |  |
| CCN(CC)CCCNc1nccc2c(C)c3c(cc12)c1cnccc1n3C |  |  | 1.18 | 1.25 | 0.735 |  | 0.14 |  |  |  |  |  |  |  |  |  |  |  |  |  |
| CCC[C@H]1O[C@@H]2CC(=O)O[C@@H]2C2=C1C(=O)C=CC2=O | 30.4 | 48.3 | 18.5 | > 74.9 | 28.5 | 38.6 | > 100 |  |  |  |  |  |  |  |  |  |  |  |  |  |
| COC1CCC(OS(C)(=O)=O)C(CO)O1 (centres undefined) | > 100 | > 100 | > 100 | > 100 | > 100 | > 100 | > 100 |  |  |  |  |  |  |  |  |  |  |  |  |  |
| Cc1c(C)c2ccc3oc4ccccc4c3c2oc1=O | > 100 | > 100 | > 100 | > 100 | > 100 |  | > 100 |  |  |  |  |  |  |  |  |  |  |  |  |  |
| COc1cc(/C=C/c2cc(/C=C/c3ccc(O)c(OC)c3)n(C(=O)c3ccc(Cl)cc3)n2)ccc1O |  | 14.4 | 7.95 | 8.14 | 7.72 | 5.85 | 20.4 |  | 1.24 | 2.03 | 2.66 | 15.5 | 2.43 | 16 | 2.35 | 2.8 | 2.67 | 1.92 | 10.7 | 0.449 |
| Cc1ccc(O)c(NC(=O)c2cccc(Nc3ccnc(C(F)(F)F)c3)c2)c1 |  | 24.8 | 21.2 | 19.7 | 41.6 | 18.9 | 35.3 |  | 11 | 10.4 | 11.4 | 38.5 | 4.21 | 26.5 | 2.27 | 5.52 | 15.5 | 5.28 | 25.9 | 6.65 |
| C/C(=N\N=C(N)N)C(CN1CCCCC1)C(c1ccccc1)c1c(O)c2ccccc2oc1=O (centres undefined) | > 100 |  | > 100 | > 100 | > 100 | > 100 |  |  |  |  |  |  |  |  |  |  |  |  |  |  |
| CCOC(=O)c1cc(C(=O)c2ccc(OC)cc2)n2ccc(/C=C/c3cc[n+](CC(=O)c4ccc(OC)cc4)cc3)cc12 |  |  | 5.5 | 8.32 | 3 |  | 3.56 |  |  | 1.56 | 2.03 | 5.96 | 1.51 | 3.56 | 2.22 | 2.02 | 1.52 |  |  |  |
| COc1cc2cc(OC(C)=O)c3cc4c(cc3c2c(OC)c1OC)OCO4 | > 100 | > 100 | > 100 | > 100 | > 100 | > 100 | > 100 |  |  |  |  |  |  |  |  |  |  |  |  |  |
| O=C1C=C(Nc2ccc(Cl)cc2Cl)c2ccccc2C1=O | > 100 | > 100 | 54.5 | > 100 | > 100 | 60.8 | > 100 |  |  |  |  |  |  |  |  |  |  |  |  |  |
| OC(CNc1ccnc2cc(Cl)ccc12)CNc1ccnc2cc(Cl)ccc12 | 3.19 |  | 7.77 |  | 3.42 |  | 3.52 | 1.7 |  | 1.83 | 1.6 | 3.1 |  |  | 2.79 |  | 1.81 |  | 3.1 | 1.67 |
